Columns and labels:
[1] = system: A549-ACE2 cells; assay type: cell-based; settings: 5 μM, 24 hours
[2] = system: SARS-CoV-2 subgenomic replicon; assay type: cell-based; settings: Vero E6-TMPRSS2 cells, 24 h
[3] = cited from earlier work
[4] = system: SARS-CoV-2; test: Time-of-addition experiment in Calu-3 cells, plaque assay; assay type: cell-based
[5] = system: A549-ACE2 cells; assay type: cell-based

SMILES | morphology of A549-ACE2 cells expressing 2xFYVE PI3P marker [1] | viral RNA replication, subgenomic replicon [2] | pharmacokinetic profile [3] | time-of-addition profile [4] | autolysosome number and autolysosome-to-autophagosome ratio relative to DMSO [5]
Cc1cccc(/C=N/Nc2cc(N3CCOCC3)nc(OCCc3ccccn3)n2)c1 [Apilimod] | cytosolic vacuolation and swelling of membrane structures | dose-dependently increased viral RNA replication | suboptimal pharmacokinetic profile | suppressed SARS-CoV-2 replication when added during the first two hpi, but not at later time points | –
CCN(CC)CCCC(C)Nc1ccnc2cc(Cl)ccc12 (centres unmarked) [chloroquine] | – | – | – | – | moderately reduced

— paper PMC12246422 (Nature Communications, 2025)
